These results are taken from ChEMBL document CHEMBL1146718, “Discovery of a potent, selective and orally active canine COX-2 inhibitor, 2-(3-difluoromethyl-5-phenyl-pyrazol-1-yl)-5-methanesulfonyl-pyridine” (Bioorg Med Chem Lett, 2004).

A short description of data set [1]: in vivo. Conditions: dog, plasma, po, 5 mg/kg.
Data set [2] can be described thus: in vivo. The following applies: dog, po, 5 mg/kg.
Data set [3] in a line: in vivo. The following applies: dog, po, 5 mg/kg. This is another data set of the same source.
The nature of data set [4]: in vivo. Conditions: dog, po, 5 mg/kg. The source holds these as a separate data set.
A short description of data set [5]: in vivo. Conditions: dog, plasma, po, 5 mg/kg. The source holds these as a separate data set.

By AUC is commonly meant the area under the concentration-time curve, a measure of exposure. A higher AUC goes with high exposure. For orientation: half-life means the time needed for the level to fall by half in the phase considered. Higher therefore signals slow decline. Broadly, the Tmax is the time from dosing to the highest level. As a reminder, the Cmax is the peak of the concentration-time curve. As to `CS(=O)(=O)c1ccc(-n2nc(C(F)F)cc2-c2ccc(F)cc2)nc1`, the exposure (AUC) in data set [1] was 7650 ng·h/mL. In data set [2], this compound gave a half-life of 17 h. For the same compound, the Tmax in data set [3] is 1.3 h. This compound returned a concentration at 24 h in data set [4] of 329 ng/mL. Moreover, the highest concentration (Cmax) in data set [5] is 509 ng/mL.
In data set [2], `CS(=O)(=O)c1ccc(-n2nc(C(F)F)cc2-c2ccccc2)nc1` had a half-life of 26 h. Besides, in data set [3], the Tmax was 1.5 h. Also, in data set [5], the Cmax turned out to be 1090 ng/mL.
In turn, `CS(=O)(=O)c1ccc(-n2nc(C(F)(F)F)cc2-c2ccccc2)nc1` came in with an AUC in data set [1] of 4280 ng·h/mL. Also, the half-life in data set [2] is 13.1 h. For the same compound, the Tmax in data set [3] was 0.8 h. For the same compound, the concentration at 24 h in data set [4] is 77 ng/mL. The highest level in data set [5] (Cmax) was 611 ng/mL.
The like results for `CS(=O)(=O)c1ccc(-n2nc(C(F)(F)F)cc2-c2ccc(F)cc2)nc1` were, in that order, 4820 ng·h/mL, 17.5 h, 0.8 h, 134 ng/mL and 540 ng/mL.
For `Cc1ccc(-c2cc(C(F)(F)F)nn2-c2ccc(S(N)(=O)=O)cc2)cc1` [CELECOXIB], in data set [1], the area under the curve (AUC) is 3100 ng·h/mL. The compound further showed a half-life in data set [2] of 3.3 h. Further, the Cmax in data set [5] was 540 ng/mL.
